Type in all cases: in vivo, human
Series [1] concerns cognitively impaired patients with EDS associated with OSA. Put plainly: SHARP clinical study: adverse events. The conditions noted are these: solriamfetol treatment, 75 then 150 mg per day oral, 2 weeks. The text has this: (§1) SHARP (Solriamfetol's Effect on Cognitive Health in Apnea Participants During a Randomized Placebo-controlled Study) was a randomized, double-blind, placebo-controlled, crossover, multicenter, trial in which 59 patients with excessive daytime sleepiness (EDS) and obstructive sleep apnea (OSA), who were experiencing cognitive impairment, were all treated with solriamfetol for 2 weeks, and with placebo for 2 weeks, with the treatment periods separated by 1 week of down-titration and washout. Patients were randomized in a 1:1 ratio either to treatment with solriamfetol followed by placebo (sequence 1), or to treatment with placebo followed by solriamfetol (sequence 2). Solriamfetol was administered orally once daily, starting at 75 mg per day for the first three days and 150 mg per day for the remainder of the 2-week treatment period. The primary outcome measure was the Digit Symbol Substitution Test subtest of the Repeatable Battery for the Assessment of Neuropsychological Status (DSST RBANS). The Digit Symbol Substitution subtest is also referred to as “Coding.” The prespecified primary endpoint was the change from baseline in cognitive function as measured by the DSST RBANS after 2 weeks of treatment (average of the 2-, 4-, 6-, and 8-hour post-dose DSST RBANS scores). […] The secondary endpoints were analyzed in a pre-specified testing sequence. […]

Series [2] has the same test system. Put plainly: SHARP clinical study: British Columbia Cognitive Complaints Inventory (BC-CCI). The conditions noted are these: 2 weeks treatment, 150 mg per day.
Text: as §1

Series [3] has the same test system. Put plainly: SHARP clinical study: Digit Symbol Substitution Test subtest of RBANS (DSST RBANS).
Text: as §1

Series [4] shares this test system. Put plainly: SHARP clinical study: Epworth Sleepiness Scale (ESS). The conditions noted are these: 2 weeks treatment, 150 mg per day.
Text: as §1

Regarding `NC(=O)OC[C@H](N)Cc1ccccc1` [solriamfetol, (R)-2-amino-3-phenylpropyl carbamate], in series [1], the “adverse event incidence: anxiety” value was 3.4% and the “adverse event incidence: nausea” value is reported as 6.9%. Besides, in series [2], the “effect size, BC-CCI overall score vs. placebo” value was 0.43. In series [2] (p=0.002), the “improvement in cognitive function, BC-CCI overall score compared to placebo” value is “Statistically significant improvement”. Besides, the “effect size, DSST RBANS vs. placebo” value in series [3] (2 weeks treatment, 150 mg per day) was 0.36. Also, the “change from baseline on the DSST RBANS” value in series [3] (after 2 weeks oral once daily (75 mg 3 days, then 150 mg), average of 2-, 4-, 6-, 8-hour post-dose scores, placebo 4.75, p=0.009) is recorded as 6.49. Also, in series [4], the “effect size, ESS vs. placebo” value is given as 0.50. In addition, the “improvement on the ESS relative to placebo” value in series [4] (p=0.004) is given as “approximately twice that observed with placebo”.

These data come from US20250032442A1, “METHODS AND COMPOSITIONS FOR TREATING COGNITIVE IMPAIRMENT” (AXSOME MALTA LTD., priority 2021, published 2025).
